Assays:
[1] = test system: human lung cancer cell line NCI-H460; experiment: Cell proliferation inhibitory activity (Cell Counting Kit-8), lung cancer NCI-H460; assay type: cell-based; settings: 96 h, NCI-H460, 4 days, read-out: Cell proliferation inhibitory activity (% Inhibition at 2.5 μM) Non-small cell lung cancer (NCI-H460)
Procedure, shortened: (§1)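 PC3 (3000 cells/well) or NCI-H460 (1000 cells/well) exposed to compound for 4 days at 37 °C in CO2. CCK-8 absorbance at 450 nm (reference 615 nm); percent proliferation inhibition calculated at 2.5 µM.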

[2] = test system: human prostate cancer cell line PC3; experiment: Cell proliferation inhibitory activity (Cell Counting Kit-8), prostate cancer PC3; assay type: cell-based; settings: 96 h, PC3, 4 days
Procedure, shortened: as §1

human PI3K(p110α/p85α) = human PI3K(p110α/p85α) (Homo sapiens, UniProt P42336); experiment: Measurement of PI3K inhibitory activity (AlphaScreen GST Detection Kit); assay type: biochemical; settings: 10 μM ATP, 4 μM PI(4,5)P2, read-out: Enzyme inhibitory activity (IC50, μM) PI3K α
Sequence of human PI3K(p110α/p85α) (P42336 whole entry): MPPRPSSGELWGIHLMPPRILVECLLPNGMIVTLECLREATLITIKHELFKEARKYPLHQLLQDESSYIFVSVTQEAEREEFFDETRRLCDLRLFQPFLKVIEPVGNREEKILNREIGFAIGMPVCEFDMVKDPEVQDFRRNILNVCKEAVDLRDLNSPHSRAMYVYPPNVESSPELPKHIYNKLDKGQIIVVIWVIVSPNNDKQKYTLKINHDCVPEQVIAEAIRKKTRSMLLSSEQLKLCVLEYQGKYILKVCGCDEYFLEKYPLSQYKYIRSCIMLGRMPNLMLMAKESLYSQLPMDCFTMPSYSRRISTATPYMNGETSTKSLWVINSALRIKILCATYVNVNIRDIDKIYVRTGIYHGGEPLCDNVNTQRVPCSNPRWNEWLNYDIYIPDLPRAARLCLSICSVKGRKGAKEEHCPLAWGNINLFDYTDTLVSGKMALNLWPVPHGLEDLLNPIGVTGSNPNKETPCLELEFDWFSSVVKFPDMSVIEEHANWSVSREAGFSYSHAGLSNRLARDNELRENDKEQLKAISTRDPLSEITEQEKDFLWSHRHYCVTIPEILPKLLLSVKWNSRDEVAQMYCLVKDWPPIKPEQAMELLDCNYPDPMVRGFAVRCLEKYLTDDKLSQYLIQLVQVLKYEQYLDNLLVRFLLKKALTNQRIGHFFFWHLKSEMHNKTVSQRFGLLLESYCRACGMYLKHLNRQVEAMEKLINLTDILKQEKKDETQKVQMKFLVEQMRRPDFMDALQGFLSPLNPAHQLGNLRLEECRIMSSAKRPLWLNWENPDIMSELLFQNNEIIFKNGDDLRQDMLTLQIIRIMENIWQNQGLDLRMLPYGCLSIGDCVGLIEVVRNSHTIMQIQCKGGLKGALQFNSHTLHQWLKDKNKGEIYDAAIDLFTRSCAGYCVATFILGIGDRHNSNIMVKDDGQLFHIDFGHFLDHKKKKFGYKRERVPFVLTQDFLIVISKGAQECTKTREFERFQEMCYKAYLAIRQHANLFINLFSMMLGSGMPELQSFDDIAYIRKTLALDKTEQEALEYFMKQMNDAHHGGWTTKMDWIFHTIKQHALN
Sequence of human PI3K(p110α/p85α) (P27986 whole entry partner): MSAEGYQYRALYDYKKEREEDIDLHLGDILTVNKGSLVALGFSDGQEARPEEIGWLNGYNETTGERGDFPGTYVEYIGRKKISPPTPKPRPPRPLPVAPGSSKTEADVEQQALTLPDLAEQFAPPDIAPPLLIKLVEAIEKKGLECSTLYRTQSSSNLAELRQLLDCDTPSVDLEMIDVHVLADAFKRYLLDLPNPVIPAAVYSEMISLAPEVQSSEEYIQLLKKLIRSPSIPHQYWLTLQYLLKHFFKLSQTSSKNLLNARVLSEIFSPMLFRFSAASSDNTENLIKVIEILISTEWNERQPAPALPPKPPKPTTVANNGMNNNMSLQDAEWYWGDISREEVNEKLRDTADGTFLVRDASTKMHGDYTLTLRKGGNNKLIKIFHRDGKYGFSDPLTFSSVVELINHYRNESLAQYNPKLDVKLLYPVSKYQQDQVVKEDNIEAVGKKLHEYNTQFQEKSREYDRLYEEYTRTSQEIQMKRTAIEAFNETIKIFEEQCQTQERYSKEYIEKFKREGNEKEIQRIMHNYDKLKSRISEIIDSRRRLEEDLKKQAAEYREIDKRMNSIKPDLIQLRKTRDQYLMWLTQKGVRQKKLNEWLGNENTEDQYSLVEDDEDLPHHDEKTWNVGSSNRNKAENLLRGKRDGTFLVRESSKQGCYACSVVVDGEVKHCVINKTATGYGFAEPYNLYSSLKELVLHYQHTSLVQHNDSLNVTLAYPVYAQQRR
Procedure, shortened: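 AlphaScreen read-out: after 1 h at room temperature, GST-GRP1, biotin-PI(3,4,5)P3 and donor/acceptor beads sensed PIP3 made by the enzyme. The kinase reaction used baculovirus-made human PI3K p110α/p85α with 10 μM ATP and 4 μM PI(4,5)P2 for 15 min at 37 °C, following a 20-min compound preincubation.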

[3] = test system: human colon cancer cell line HCT116; experiment: Cell proliferation inhibitory activity (Cell Counting Kit-8), colon cancer HCT116; assay type: cell-based; settings: HCT-116, 96 h, HCT116, 4 days
Procedure, shortened: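 HCT116 cells (2000/well) were exposed to compounds for 4 days at 37 °C under CO2. Viability was then read with CCK-8 as absorbance at 450 nm (reference 615 nm).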

| Compound | IC50 (human PI3K(p110α/p85α)) | inhibition at 2.5 µM [1] | inhibition at 2.5 µM [2] | inhibition at 2.5 µM [3] |
| --- | --- | --- | --- | --- |
| Nc1ncc(-c2nc(N3CCOCC3)nc3c2CCN3c2ccc(CN3CCN(CCF)CC3)cc2)cn1 [Example D-329, 5-(7-{4-[4-(2-fluoroethyl)-piperazin-1-ylmethyl]-phenyl}-2-morpholin-4-yl-6,7-dihydro-5H-pyrrolo[2,3-d]pyrimidin-4-yl)-pyrimidin-2-ylamine] | 0.26 µM | 81% | 65% | 73% |
| Nc1ncc(-c2nc(N3CCOCC3)nc3c2CCN3c2ccc(CN3CCN(CCC(F)(F)F)CC3)cc2)cn1 [Example D-332, 5-(2-morpholin-4-yl-7-{4-[4-(3,3,3-trifluoropropyl)piperazin-1-ylmethyl]-phenyl}-6,7-dihydro-5H-pyrrolo[2,3-d]pyrimidin-4-yl}-pyrimidin-2-ylamine] | 0.21 µM | 54% | 43% | 60% |
| CN1CCN(Cc2ccc3cc(N4CCc5c(-c6cnc(N)nc6)nc(N6CCOCC6)nc54)ccc3c2)CC1 [Example D-333, 5-{7-[6-(4-methyl-piperazin-1-ylmethyl)naphthalen-2-yl]-2-morpholin-4-yl-6,7-dihydro-5H-pyrrolo[2,3-d]pyrimidin-4-yl}-pyrimidin-2-ylamine] | 0.16 µM | 102% | 43% | 99% |
| Nc1ncc(-c2nc(N3CCOCC3)nc3c2CCN3c2ccc(CNCc3cccnc3)cc2)cn1 [Example D-334] | 0.2 µM | 94% | 90% | 93% |

More lines, main results first:

| IC50 (human PI3K(p110α/p85α)) | Compound | inhibition at 2.5 µM [1] | inhibition at 2.5 µM [2] | inhibition at 2.5 µM [3] |
| --- | --- | --- | --- | --- |
| 0.36 µM | CN(C)CCNC(=O)c1cccc(-c2nc(N3CCOCC3)nc3c2CCN3c2cccnc2)c1 [Example G-05, N-(2-dimethylaminoethyl)-3-(2-morpholin-4-yl-7-pyridin-3-yl-6,7-dihydro-5H-pyrrolo[2,3-d]pyrimidin-4-yl)-benzamide] | 55% | 49% | 38% |
| 0.33 µM | CN(C)CCOC(=O)c1cccc(-c2nc(N3CCOCC3)nc3c2CCN3c2cccnc2)c1 [Example G-27, 3-(2-Morpholin-4-yl-7-pyridin-3-yl-6,7-dihydro-5H-pyrrolo[2,3-d]pyrimidin-4-yl)-benzoic acid 2-dimethylamino-ethyl ester] | 18% | 48% | 44% |
| 0.02 µM | CN(C)CCCNc1cc(N2CCc3c(-c4cccc(O)c4)nc(N4CCOCC4)nc32)ccn1 [Example H-12, 3-{7-[2-(3-Dimethylamino-propylamino)-pyridin-4-yl]-2-morpholin-4-yl-6,7-dihydro-5H-pyrrolo[2,3-d]pyrimidin-4-yl}-phenol] | 71% | 76% | 82% |
| 0.018 µM | CN(C)CCOc1cc(N2CCc3c(-c4cnc(N)nc4)nc(N4CCOCC4)nc32)ccn1 [Example H-32, 5-[7-(2-Dimethylaminoethoxy-pyridin-4-yl)-2-morpholin-4-yl-6,7-dihydro-5H-pyrrolo[2,3-d]pyrimidin-4-yl]-pyrimidin-2-ylamine] | 86% | 89% | 82% |
| 0.011 µM | CCN1CCN(c2cc(N3CCc4c(-c5cnc(N)nc5)nc(N5CCOCC5)nc43)ccn2)CC1 [Example H-34, 5-{7-[2-(4-Ethyl-piperazin-1-yl)-pyridin-4-yl]-2-morpholin-4-yl-6,7-dihydro-5H-pyrrolo[2,3-d]pyrimidin-4-yl}-pyrimidin-2-ylamine] | 89% | 91% | 81% |

— patent US8022205B2, “Pyrimidine derivatives as PI3K inhibitor and use thereof” (Chugai Seiyaku Kabushiki Kaisha, priority 2006, dated 2011)
